Source: PubChem BioAssay AID330 (DTP/NCI, 2004)
Several values for one entry are separate records, joined by “and”; a condition that tells them apart may be missing. Equal entries are not always repeated. Inconclusive results and toxic doses are left out.

Tested on: P388 leukemia ip, CD2F1 mice, survival T/C
Assay: NCI In Vivo Anticancer Drug Screen. Data for tumor model P388 Leukemia (intraperitoneal) in CD2F1 (CDF1) mice
Conditions: endpoint: median survival time, higher = longer survival
Method in brief: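 Mice carrying the transplanted tumor received test compound or vehicle. Survival was recorded in each group, and the value is the treated-group measurement divided by that of the vehicle-treated control group.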

[1] = dose: 30.0 mg/kg/injection, schedule: Q01DX005 (ip), vehicle: Klucel (hydroxypropylcellulose) (HPC)
[2] = dose: 50.0 mg/kg/injection, schedule: Q01DX005 (ip), vehicle: saline with Tween-80
[3] = dose: 100.0 mg/kg/injection, schedule: Q01DX005 (ip), vehicle: saline with Tween-80
[4] = dose: 200.0 mg/kg/injection, schedule: Q01DX005 (ip), vehicle: saline with Tween-80
[5] = dose: 50.0 mg/kg/injection, schedule: Q01DX009 (ip), vehicle: other
[6] = dose: 100.0 mg/kg/injection, schedule: Q01DX009 (ip), vehicle: other
[7] = dose: 50.0 mg/kg/injection, schedule: Q01DX009 (ip), vehicle: Klucel (hydroxypropylcellulose) (HPC)
[8] = dose: 50.0 mg/kg/injection, schedule: Q01DX005 (ip), vehicle: Klucel (hydroxypropylcellulose) (HPC)
[9] = dose: 100.0 mg/kg/injection, schedule: Q01DX005 (ip), vehicle: Klucel (hydroxypropylcellulose) (HPC)
[10] = dose: 200.0 mg/kg/injection, schedule: Q01DX005 (ip), vehicle: Klucel (hydroxypropylcellulose) (HPC)
[11] = dose: 60.0 mg/kg/injection, schedule: Q01DX005 (ip), vehicle: saline with Tween-80
[12] = dose: 120.0 mg/kg/injection, schedule: Q01DX005 (ip), vehicle: saline with Tween-80
[13] = dose: 100.0 mg/kg/injection, schedule: Q01DX009 (ip), vehicle: saline with Tween-80
[14] = dose: 200.0 mg/kg/injection, schedule: Q01DX009 (ip), vehicle: saline with Tween-80
[15] = dose: 50.0 mg/kg/injection, schedule: Q01DX009 (ip), vehicle: saline
[16] = dose: 100.0 mg/kg/injection, schedule: Q01DX009 (ip), vehicle: saline
[17] = dose: 200.0 mg/kg/injection, schedule: Q01DX009 (ip), vehicle: saline
[18] = dose: 50.0 mg/kg/injection, schedule: Q01DX009 (ip), vehicle: saline with Tween-80

For `CC(=O)OC1CCC2(C)C(=O)CCC3C=C(C(=O)C3CSc3ccc(Br)cc3)C(O)CC2C1(C)C` (centres undefined), the T/C (dose: 11.25 mg/kg/injection, schedule: Q01DX009 (ip), vehicle: Klucel (hydroxypropylcellulose) (HPC)) was 95 % of control, the T/C (dose: 22.5 mg/kg/injection, schedule: Q01DX009 (ip), vehicle: Klucel (hydroxypropylcellulose) (HPC)) was 100 % of control and the T/C (dose: 45.0 mg/kg/injection, schedule: Q01DX009 (ip), vehicle: Klucel (hydroxypropylcellulose) (HPC)) was 94 % of control. For the same compound, the T/C (dose: 90.0 mg/kg/injection, schedule: Q01DX009 (ip), vehicle: Klucel (hydroxypropylcellulose) (HPC)) was 100 % of control.

`CC(C)CCCC(C)C1CCC2C3CCC4CCC=CC4(C)C3CCC12C` (centres undefined) was tested, and the T/C [1] was 93 % of control, the T/C (dose: 60.0 mg/kg/injection, schedule: Q01DX005 (ip), vehicle: Klucel (hydroxypropylcellulose) (HPC)) was 90 % of control and the T/C (dose: 120.0 mg/kg/injection, schedule: Q01DX005 (ip), vehicle: Klucel (hydroxypropylcellulose) (HPC)) was 90 % of control. For the same compound, the T/C (dose: 240.0 mg/kg/injection, schedule: Q01DX005 (ip), vehicle: Klucel (hydroxypropylcellulose) (HPC)) was 91 % of control.

`COc1cc(OC(=O)N(CCCl)N=O)cc(OC)c1OC` was tested, and the T/C (dose: 12.5 mg/kg/injection, schedule: Q01DX001 (ip), vehicle: Klucel (hydroxypropylcellulose) (HPC)) was 112 % of control, the T/C (dose: 25.0 mg/kg/injection, schedule: Q01DX001 (ip), vehicle: Klucel (hydroxypropylcellulose) (HPC)) was 101 % of control and the T/C (dose: 50.0 mg/kg/injection, schedule: Q01DX001 (ip), vehicle: Klucel (hydroxypropylcellulose) (HPC)) was 103 % of control.

`COc1ccccc1NC(=O)C1=C(C)NC(C)=C(C(=O)Nc2ccccc2OC)C1c1ccc(Cl)cc1Cl` was tested, and the T/C [2] was 103 % of control, the T/C [3] was 103 % of control and the T/C [4] was 91 % of control.

In the case of `CC(=O)Nc1c(C)ncn(-c2ccccc2)c1=O`, the T/C (dose: 60.0 mg/kg/injection, schedule: Q01DX005 (ip), vehicle: saline) is reported as 95 % of control, the T/C (dose: 120.0 mg/kg/injection, schedule: Q01DX005 (ip), vehicle: saline) is reported as 100 % of control and the T/C (dose: 240.0 mg/kg/injection, schedule: Q01DX005 (ip), vehicle: saline) is reported as 101 % of control.

`CC1CN1P(=O)(OCCC#N)N1CC1C` (centres undefined) was tested, and the T/C (dose: 25.0 mg/kg/injection, schedule: Q01DX009 (ip), vehicle: other) was 104 % of control, the T/C (dose: 44.0 mg/kg/injection, schedule: Q04DX003 (ip), vehicle: other) was 118 % of control and the T/C [5] was 110 % of control. For the same compound, the T/C (dose: 66.0 mg/kg/injection, schedule: Q04DX003 (ip), vehicle: other) was 118 % of control, the T/C [6] was 165 % of control and 177 % of control and the T/C (dose: 150.0 mg/kg/injection, schedule: Q04DX003 (ip), vehicle: other) was 163 % of control.

With `O=c1oc2cc(-c3c(O)c4ccccc4oc3=O)c(O)cc2s1` the T/C (dose: 100.0 mg/kg/injection, schedule: Q01DX001 (ip), vehicle: Klucel (hydroxypropylcellulose) (HPC)) was 113 % of control, the T/C (dose: 200.0 mg/kg/injection, schedule: Q01DX001 (ip), vehicle: Klucel (hydroxypropylcellulose) (HPC)) was 104 % of control and the T/C (dose: 400.0 mg/kg/injection, schedule: Q01DX001 (ip), vehicle: Klucel (hydroxypropylcellulose) (HPC)) was 106 % of control.

In the case of `O=C1Cc2ccccc2CC1CC1Cc2ccccc2CC1=O` (centres undefined), the T/C [7] is reported as 87 % of control and the T/C (dose: 200.0 mg/kg/injection, schedule: Q01DX009 (ip), vehicle: Klucel (hydroxypropylcellulose) (HPC)) is reported as 91 % of control.

With `Cc1nc(-c2ccccc2)nc2c1nc(Cc1ccc(Cl)cc1)n2Nc1ccccc1` the T/C [8] was 95 % of control, the T/C [9] was 91 % of control and the T/C [10] was 88 % of control.

In the case of `COc1ccccc1C1OC2=C(Nc3ccc(Cl)cc3N2)C1=O` (centres undefined), the T/C (dose: 7.5 mg/kg/injection, schedule: Q01DX005 (ip), vehicle: Klucel (hydroxypropylcellulose) (HPC)) is reported as 100 % of control, the T/C (dose: 15.0 mg/kg/injection, schedule: Q01DX005 (ip), vehicle: Klucel (hydroxypropylcellulose) (HPC)) is reported as 93 % of control and the T/C [1] is reported as 87 % of control.

For `O=C(O)CCCCc1ccc(CCCCC(=O)O)cc1`, the T/C (dose: 18.75 mg/kg/injection, schedule: Q04DX003 (ip), vehicle: Klucel (hydroxypropylcellulose) (HPC)) was 106 % of control, the T/C (dose: 37.5 mg/kg/injection, schedule: Q04DX003 (ip), vehicle: Klucel (hydroxypropylcellulose) (HPC)) was 111 % of control and the T/C (dose: 75.0 mg/kg/injection, schedule: Q04DX003 (ip), vehicle: Klucel (hydroxypropylcellulose) (HPC)) was 113 % of control.

For `CC(=O)N(C(C)=O)N1C(=O)C2C3C=CC(C4CC34)C2C1=O` (centres undefined), the T/C [7] was 92 % of control and the T/C (dose: 100.0 mg/kg/injection, schedule: Q01DX009 (ip), vehicle: Klucel (hydroxypropylcellulose) (HPC)) was 94 % of control.

`O=C1CCCCC2CC2C1=O` (centres undefined) (tested in a mixture with another compound) was tested, and the T/C [5] was 101 % of control, the T/C [6] was 100 % of control and the T/C (dose: 200.0 mg/kg/injection, schedule: Q01DX009 (ip), vehicle: other) was 108 % of control.

In the case of `O=c1nc2[nH]c3c4cccc5cccc(c3nc2c(=O)[nH]1)c54`, the T/C (dose: 12.5 mg/kg/injection, schedule: Q01DX005 (ip), vehicle: Klucel (hydroxypropylcellulose) (HPC)) is reported as 101 % of control and 108 % of control, the T/C (dose: 25.0 mg/kg/injection, schedule: Q01DX005 (ip), vehicle: Klucel (hydroxypropylcellulose) (HPC)) is reported as 101 % of control and 98 % of control and the T/C [8] is reported as 106 % of control and 110 % of control (2×). For the same compound, the T/C [9] was 108 % of control and 113 % of control and 124 % of control.

For `Cc1[nH]c2ccc(N(C)C)cc2c(=O)c1Cc1c(C)[nH]c2ccc(N(C)C)cc2c1=O`, the T/C [11] was 92 % of control and the T/C [12] was 89 % of control.

In the case of `CCCCOCC(=O)OCCCC`, the T/C [13] is reported as 109 % of control, the T/C (dose: 100.0 mg/kg/injection, schedule: Q04DX003 (ip), vehicle: saline with Tween-80) is reported as 110 % of control and the T/C [14] is reported as 118 % of control. The T/C (dose: 200.0 mg/kg/injection, schedule: Q04DX003 (ip), vehicle: saline with Tween-80) was 115 % of control, the T/C (dose: 400.0 mg/kg/injection, schedule: Q01DX009 (ip), vehicle: saline with Tween-80) was 95 % of control and the T/C (dose: 400.0 mg/kg/injection, schedule: Q04DX003 (ip), vehicle: saline with Tween-80) was 100 % of control.

`Cc1cc(NC(=O)Nc2ccc(F)cc2)no1` was tested, and the T/C [11] was 94 % of control, the T/C [12] was 93 % of control and the T/C (dose: 240.0 mg/kg/injection, schedule: Q01DX005 (ip), vehicle: saline with Tween-80) was 96 % of control.

`CCOP(=O)(Nc1ccc(C)cc1C)OCC` was tested, and the T/C [15] was 100 % of control, the T/C (dose: 100.0 mg/kg/injection, schedule: Q01DX001 (ip), vehicle: saline) was 103 % of control and the T/C [16] was 104 % of control. The T/C (dose: 200.0 mg/kg/injection, schedule: Q01DX001 (ip), vehicle: saline) was 107 % of control, the T/C [17] was 99 % of control and the T/C (dose: 400.0 mg/kg/injection, schedule: Q01DX001 (ip), vehicle: saline) was 100 % of control.

`CCCCN(CCCC)CCC(O)c1cc(-c2ccc(C(F)(F)F)cc2)nc(-c2ccc(C(F)(F)F)cc2)c1` (centres undefined) was tested, and the T/C [18] was 111 % of control, the T/C [13] was 106 % of control and the T/C [14] was 101 % of control.

`NC(=S)N/N=C/c1[nH]c2cc(Br)c(Br)cc2c1Br` was tested, and the T/C (dose: 100.0 mg/kg/injection, schedule: Q01DX001 (ip), vehicle: saline with Tween-80) was 91 % of control, the T/C (dose: 200.0 mg/kg/injection, schedule: Q01DX001 (ip), vehicle: saline with Tween-80) was 91 % of control and the T/C (dose: 400.0 mg/kg/injection, schedule: Q01DX001 (ip), vehicle: saline with Tween-80) was 98 % of control.

With `O=C(O)C(=O)O` the T/C (dose: 12.5 mg/kg/injection, schedule: Q01DX005 (ip), vehicle: saline) was 98 % of control, the T/C (dose: 25.0 mg/kg/injection, schedule: Q01DX005 (ip), vehicle: saline) was 97 % of control and the T/C [2] was 92 % of control.

For `[O-]c1ccc[n+]2c1sc1ncccc12` (tested in a mixture with another compound), the T/C [2] was 107 % of control, the T/C [3] was 107 % of control and the T/C [4] was 105 % of control.

In the case of `c1nc2c3c4c(sc3ncn2n1)CCCC4`, the T/C [8] is reported as 98 % of control, the T/C [9] is reported as 106 % of control and the T/C [10] is reported as 91 % of control.

`COc1cc2c(cc1OC)C1C(O)C(OC)C=C3CCN(C2)C31` (centres undefined) was tested, and the T/C (dose: 25.0 mg/kg/injection, schedule: Q01DX009 (ip), vehicle: saline with Tween-80) was 114 % of control, the T/C [18] was 114 % of control and the T/C [15] was 93 % of control. For the same compound, the T/C [13] was 118 % of control, the T/C [16] was 119 % of control and the T/C [17] was 102 % of control.
